One may read the IC50 as the concentration at which inhibition is half-maximal. Low readings indicate greater potency, high ones weaker potency.

The source of these data is patent US20230133958A1, “COMPOUNDS USEFUL IN MODULATING EGFR AND PI3K” (Mekanistic Therapeutics LLC, priority 2021, published 2023).

The target of assay [1] is HER2 (Homo sapiens, UniProt P04626). Briefly: Z'-LYTE / Adapta biochemical kinase assay, HER2. An excerpt: (§1) The Z′-LYTE® biochemical assay employs a fluorescence-based, coupled-enzyme format and is based on the differential sensitivity of phosphorylated and non-phosphorylated peptides to proteolytic cleavage. The peptide substrate is labeled with two fluorophores—one at each end—that make up a FRET pair. In the primary reaction, the kinase transfers the gamma-phosphate of ATP to a single tyrosine, serine or threonine residue in a synthetic FRET-peptide. In the secondary reaction, a site-specific protease recognizes and cleaves non-phosphorylated FRET-peptides. Phosphorylation of FRET-peptides suppresses cleavage by the Development Reagent. […] A ratiometric method, which calculates the ratio (the Emission Ratio) of donor emission to acceptor emission after excitation of the donor fluorophore at 400 nm, is used to quantitate reaction progress.
(§2) A significant benefit of this ratiometric method for quantitating reaction progress is the elimination of well-to-well variations in FRET-peptide concentration and signal intensities. […]
(§3) Both cleaved and uncleaved FRET-peptides contribute to the fluorescence signals and therefore to the Emission Ratio. The extent of phosphorylation of the FRET-peptide can be calculated from the Emission Ratio. […]

The target in assay [2] is PI3Kβ (Homo sapiens, UniProt P42338). Briefly: Z'-LYTE / Adapta biochemical kinase assay, PI3Kβ.
Description: as §1, §2, §3

PI3Kβ, sequence (P42338 whole entry): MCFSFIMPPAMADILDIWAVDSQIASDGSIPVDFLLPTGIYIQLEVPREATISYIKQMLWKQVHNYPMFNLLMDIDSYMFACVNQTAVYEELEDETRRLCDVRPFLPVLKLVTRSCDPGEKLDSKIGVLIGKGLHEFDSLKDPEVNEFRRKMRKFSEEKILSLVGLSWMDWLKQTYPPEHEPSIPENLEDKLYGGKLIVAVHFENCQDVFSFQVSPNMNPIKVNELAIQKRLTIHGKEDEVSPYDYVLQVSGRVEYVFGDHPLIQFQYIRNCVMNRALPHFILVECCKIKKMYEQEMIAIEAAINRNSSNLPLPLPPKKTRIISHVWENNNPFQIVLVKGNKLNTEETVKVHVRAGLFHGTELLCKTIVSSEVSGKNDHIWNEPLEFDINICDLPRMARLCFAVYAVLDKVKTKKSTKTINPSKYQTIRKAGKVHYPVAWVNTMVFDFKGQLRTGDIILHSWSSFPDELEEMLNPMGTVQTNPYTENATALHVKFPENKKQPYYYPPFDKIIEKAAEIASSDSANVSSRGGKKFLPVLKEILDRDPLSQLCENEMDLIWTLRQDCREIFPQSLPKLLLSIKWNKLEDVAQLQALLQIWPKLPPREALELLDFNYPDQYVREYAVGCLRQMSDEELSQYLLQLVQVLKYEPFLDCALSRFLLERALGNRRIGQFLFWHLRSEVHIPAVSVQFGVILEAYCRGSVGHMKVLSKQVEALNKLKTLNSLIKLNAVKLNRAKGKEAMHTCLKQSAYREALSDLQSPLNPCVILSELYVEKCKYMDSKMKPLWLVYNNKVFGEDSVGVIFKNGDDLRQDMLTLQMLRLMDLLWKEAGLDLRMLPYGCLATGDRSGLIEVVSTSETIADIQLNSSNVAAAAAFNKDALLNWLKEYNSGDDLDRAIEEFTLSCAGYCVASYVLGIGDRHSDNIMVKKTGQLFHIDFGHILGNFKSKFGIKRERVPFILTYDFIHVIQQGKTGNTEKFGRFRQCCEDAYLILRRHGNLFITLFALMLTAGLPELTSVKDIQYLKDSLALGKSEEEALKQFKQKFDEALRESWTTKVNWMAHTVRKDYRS
PI3Kβ, sequence (P27986 whole entry partner): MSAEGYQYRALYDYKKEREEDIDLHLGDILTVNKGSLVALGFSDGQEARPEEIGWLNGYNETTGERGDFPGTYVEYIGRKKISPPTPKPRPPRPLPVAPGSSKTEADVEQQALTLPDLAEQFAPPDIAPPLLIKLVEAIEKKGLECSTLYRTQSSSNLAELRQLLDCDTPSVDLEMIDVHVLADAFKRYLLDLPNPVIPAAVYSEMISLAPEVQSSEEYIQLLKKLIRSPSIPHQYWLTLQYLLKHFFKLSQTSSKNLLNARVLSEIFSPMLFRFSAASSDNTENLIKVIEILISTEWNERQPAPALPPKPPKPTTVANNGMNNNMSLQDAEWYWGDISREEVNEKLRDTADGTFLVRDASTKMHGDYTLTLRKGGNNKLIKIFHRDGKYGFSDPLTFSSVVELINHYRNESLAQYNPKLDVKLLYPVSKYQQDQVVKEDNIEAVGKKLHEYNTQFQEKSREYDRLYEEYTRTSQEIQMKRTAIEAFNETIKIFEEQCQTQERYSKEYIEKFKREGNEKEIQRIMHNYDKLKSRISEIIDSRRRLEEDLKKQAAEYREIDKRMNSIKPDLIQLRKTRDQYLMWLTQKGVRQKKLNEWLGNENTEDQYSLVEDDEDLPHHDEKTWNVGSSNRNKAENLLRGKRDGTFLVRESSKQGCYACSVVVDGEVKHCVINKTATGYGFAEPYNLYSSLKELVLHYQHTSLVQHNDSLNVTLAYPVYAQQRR
HER2, sequence (P04626 23-1255): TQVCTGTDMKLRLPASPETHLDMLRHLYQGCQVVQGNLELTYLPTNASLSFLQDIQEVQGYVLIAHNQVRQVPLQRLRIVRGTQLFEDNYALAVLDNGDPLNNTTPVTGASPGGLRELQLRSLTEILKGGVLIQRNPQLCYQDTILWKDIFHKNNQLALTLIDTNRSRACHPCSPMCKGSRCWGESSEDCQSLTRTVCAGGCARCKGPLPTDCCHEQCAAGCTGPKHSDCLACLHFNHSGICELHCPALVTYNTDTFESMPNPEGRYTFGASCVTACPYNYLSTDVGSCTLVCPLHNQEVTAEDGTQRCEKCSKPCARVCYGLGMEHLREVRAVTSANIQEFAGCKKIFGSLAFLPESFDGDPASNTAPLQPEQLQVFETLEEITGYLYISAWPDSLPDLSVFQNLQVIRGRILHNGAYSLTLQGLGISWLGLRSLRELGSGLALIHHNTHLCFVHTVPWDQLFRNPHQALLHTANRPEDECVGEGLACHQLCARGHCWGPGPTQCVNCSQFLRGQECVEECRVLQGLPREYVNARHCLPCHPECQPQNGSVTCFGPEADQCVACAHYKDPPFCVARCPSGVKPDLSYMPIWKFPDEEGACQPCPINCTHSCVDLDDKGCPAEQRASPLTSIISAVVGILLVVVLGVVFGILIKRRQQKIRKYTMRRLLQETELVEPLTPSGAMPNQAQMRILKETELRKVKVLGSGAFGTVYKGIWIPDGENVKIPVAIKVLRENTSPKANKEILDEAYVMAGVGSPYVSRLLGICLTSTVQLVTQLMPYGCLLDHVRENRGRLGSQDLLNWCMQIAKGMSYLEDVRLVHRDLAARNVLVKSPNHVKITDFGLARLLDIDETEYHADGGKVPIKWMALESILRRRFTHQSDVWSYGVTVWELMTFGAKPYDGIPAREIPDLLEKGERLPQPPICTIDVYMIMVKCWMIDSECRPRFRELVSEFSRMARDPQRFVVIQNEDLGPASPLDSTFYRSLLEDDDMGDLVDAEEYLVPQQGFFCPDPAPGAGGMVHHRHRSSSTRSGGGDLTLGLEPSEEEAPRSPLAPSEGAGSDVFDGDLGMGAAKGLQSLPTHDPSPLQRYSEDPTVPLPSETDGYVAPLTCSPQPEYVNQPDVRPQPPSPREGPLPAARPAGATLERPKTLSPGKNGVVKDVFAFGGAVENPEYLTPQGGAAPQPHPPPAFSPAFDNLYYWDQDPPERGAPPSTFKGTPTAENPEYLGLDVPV

On to `CS(=O)(=O)Nc1cc(-c2ccc3ncnc(Nc4cccc(Cl)c4F)c3c2)cnc1Cl` [Compound 6, N-[2-chloro-5-[4-(3-chloro-2-fluoro-anilino)quinazolin-6-yl]-3-pyridyl] methanesulfonamide], for which the IC50 is > 200 nM in assay [1] and 20 to 200 nM in assay [2].
